According to ChEMBL document CHEMBL5465560, “Selectivity Literature for EUbOPEN Chemogenomic Library” (2024):

Columns and labels:
[1] = molecular target: Leukocyte tyrosine kinase receptor (Homo sapiens, UniProt P29376); test: Selectivity interaction (ProQinase) EUB0000171b LTK
[2] = molecular target: cAMP-dependent protein kinase catalytic subunit gamma (Homo sapiens) (UniProt P22612); test: Selectivity interaction (LanthaScreen Eu Kinase Binding Assay) EUB0001632a PRKACG; conditions: at 10 µM
Chain of cAMP-dependent protein kinase catalytic subunit gamma (Homo sapiens) (P22612 2-351 limits assumed): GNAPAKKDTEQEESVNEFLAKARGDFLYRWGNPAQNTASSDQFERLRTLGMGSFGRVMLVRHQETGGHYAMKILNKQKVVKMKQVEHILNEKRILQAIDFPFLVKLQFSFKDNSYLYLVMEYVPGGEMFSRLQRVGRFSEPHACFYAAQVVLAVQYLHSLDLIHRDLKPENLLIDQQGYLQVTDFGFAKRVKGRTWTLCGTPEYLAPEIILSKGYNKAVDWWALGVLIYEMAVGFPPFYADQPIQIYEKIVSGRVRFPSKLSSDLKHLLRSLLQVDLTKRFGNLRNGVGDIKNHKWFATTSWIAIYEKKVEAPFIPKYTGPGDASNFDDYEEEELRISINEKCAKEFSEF

[3] = molecular target: T1, Interleukin-1 receptor-associated kinase 4 (Homo sapiens) (UniProt Q9NWZ3); test: Selectivity interaction (Kinase panel (Invitrogen)) EUB0000639a IRAK4; conditions: at 200 nM
T1 sequence (whole entry): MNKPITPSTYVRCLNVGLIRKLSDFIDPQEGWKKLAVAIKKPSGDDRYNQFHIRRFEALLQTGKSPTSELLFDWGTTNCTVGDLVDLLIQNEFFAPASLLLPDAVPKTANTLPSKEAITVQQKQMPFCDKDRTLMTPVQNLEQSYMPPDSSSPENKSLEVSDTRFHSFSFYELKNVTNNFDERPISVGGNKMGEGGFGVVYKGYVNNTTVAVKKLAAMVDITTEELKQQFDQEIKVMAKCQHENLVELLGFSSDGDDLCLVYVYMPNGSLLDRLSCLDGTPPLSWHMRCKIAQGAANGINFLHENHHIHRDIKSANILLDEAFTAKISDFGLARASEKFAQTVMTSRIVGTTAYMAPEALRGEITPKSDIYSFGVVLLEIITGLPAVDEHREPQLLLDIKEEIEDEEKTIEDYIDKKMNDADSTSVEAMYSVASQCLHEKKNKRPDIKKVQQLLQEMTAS

[4] = molecular target: Protein kinase C beta type (Homo sapiens, UniProt P05771); test: Selectivity interaction (SelectScreen profiling (Invitrogen)) EUB0000607a PRKCB; conditions: at 2 µM
Chain of Protein kinase C beta type (P05771 2-671 limits assumed): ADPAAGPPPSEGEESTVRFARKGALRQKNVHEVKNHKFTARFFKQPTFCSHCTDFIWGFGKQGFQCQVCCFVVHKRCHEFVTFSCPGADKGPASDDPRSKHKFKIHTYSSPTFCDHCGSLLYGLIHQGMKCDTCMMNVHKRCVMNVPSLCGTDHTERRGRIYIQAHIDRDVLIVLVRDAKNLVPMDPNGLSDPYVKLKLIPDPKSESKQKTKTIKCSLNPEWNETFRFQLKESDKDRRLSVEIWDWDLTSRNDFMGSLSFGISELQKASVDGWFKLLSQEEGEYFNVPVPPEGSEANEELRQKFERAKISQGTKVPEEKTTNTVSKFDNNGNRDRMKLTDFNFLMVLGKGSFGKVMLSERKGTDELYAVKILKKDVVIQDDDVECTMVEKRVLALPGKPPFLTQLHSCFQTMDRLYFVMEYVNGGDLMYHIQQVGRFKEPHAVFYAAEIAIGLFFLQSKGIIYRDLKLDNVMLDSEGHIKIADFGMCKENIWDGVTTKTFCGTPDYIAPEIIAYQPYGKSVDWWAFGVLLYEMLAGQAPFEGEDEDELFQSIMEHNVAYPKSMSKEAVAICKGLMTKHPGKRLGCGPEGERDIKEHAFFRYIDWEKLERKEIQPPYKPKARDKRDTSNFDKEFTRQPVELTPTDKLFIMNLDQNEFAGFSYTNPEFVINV

[5] = molecular target: T2, TGF-beta receptor type-1 (Homo sapiens) (UniProt P36897); test: Selectivity interaction (KinomeScan (DiscoverX)) EUB0000618a TGFBR1; conditions: at 10 µM
T2 sequence (whole entry): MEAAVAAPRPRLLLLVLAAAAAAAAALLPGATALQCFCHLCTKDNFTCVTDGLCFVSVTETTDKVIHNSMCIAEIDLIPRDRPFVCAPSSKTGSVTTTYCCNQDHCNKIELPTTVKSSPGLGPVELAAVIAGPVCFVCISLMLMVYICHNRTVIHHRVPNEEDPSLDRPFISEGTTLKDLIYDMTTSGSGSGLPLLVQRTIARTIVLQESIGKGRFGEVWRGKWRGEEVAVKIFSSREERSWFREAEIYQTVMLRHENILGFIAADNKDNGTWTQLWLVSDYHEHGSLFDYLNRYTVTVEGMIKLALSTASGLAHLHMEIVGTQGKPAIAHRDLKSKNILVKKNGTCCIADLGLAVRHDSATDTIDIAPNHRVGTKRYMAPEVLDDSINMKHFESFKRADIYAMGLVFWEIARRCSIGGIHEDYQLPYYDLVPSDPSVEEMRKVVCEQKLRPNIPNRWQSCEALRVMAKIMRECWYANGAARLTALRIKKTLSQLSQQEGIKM

[6] = molecular target: Cyclin-dependent kinase 16 (Homo sapiens) (UniProt Q00536); test: Selectivity interaction (Ambit KINOMEscan and KiNATiv profiling in Jurkat cells) EUB0000090b CDK16; type: cell-based; conditions: at 1 µM
Chain of Cyclin-dependent kinase 16 (Homo sapiens) (Q00536 whole entry): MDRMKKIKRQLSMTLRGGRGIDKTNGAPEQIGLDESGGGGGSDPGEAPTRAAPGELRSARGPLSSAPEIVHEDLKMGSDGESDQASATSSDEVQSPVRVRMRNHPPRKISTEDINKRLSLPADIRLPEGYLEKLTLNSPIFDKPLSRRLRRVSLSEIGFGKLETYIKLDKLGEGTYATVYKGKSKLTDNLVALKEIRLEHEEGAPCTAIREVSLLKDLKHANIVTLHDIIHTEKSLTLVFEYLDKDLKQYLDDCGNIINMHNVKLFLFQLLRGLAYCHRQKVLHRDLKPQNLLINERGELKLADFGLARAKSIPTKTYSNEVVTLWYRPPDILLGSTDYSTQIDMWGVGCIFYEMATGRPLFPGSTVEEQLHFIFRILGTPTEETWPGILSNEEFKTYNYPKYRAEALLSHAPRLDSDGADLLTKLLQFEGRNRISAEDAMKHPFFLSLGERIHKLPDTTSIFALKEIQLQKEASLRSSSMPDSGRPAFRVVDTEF

[7] = molecular target: T3, Histone-lysine N-methyltransferase EHMT1 (Homo sapiens) (UniProt Q9H9B1); conditions: at 1 µM
T3 sequence (whole entry): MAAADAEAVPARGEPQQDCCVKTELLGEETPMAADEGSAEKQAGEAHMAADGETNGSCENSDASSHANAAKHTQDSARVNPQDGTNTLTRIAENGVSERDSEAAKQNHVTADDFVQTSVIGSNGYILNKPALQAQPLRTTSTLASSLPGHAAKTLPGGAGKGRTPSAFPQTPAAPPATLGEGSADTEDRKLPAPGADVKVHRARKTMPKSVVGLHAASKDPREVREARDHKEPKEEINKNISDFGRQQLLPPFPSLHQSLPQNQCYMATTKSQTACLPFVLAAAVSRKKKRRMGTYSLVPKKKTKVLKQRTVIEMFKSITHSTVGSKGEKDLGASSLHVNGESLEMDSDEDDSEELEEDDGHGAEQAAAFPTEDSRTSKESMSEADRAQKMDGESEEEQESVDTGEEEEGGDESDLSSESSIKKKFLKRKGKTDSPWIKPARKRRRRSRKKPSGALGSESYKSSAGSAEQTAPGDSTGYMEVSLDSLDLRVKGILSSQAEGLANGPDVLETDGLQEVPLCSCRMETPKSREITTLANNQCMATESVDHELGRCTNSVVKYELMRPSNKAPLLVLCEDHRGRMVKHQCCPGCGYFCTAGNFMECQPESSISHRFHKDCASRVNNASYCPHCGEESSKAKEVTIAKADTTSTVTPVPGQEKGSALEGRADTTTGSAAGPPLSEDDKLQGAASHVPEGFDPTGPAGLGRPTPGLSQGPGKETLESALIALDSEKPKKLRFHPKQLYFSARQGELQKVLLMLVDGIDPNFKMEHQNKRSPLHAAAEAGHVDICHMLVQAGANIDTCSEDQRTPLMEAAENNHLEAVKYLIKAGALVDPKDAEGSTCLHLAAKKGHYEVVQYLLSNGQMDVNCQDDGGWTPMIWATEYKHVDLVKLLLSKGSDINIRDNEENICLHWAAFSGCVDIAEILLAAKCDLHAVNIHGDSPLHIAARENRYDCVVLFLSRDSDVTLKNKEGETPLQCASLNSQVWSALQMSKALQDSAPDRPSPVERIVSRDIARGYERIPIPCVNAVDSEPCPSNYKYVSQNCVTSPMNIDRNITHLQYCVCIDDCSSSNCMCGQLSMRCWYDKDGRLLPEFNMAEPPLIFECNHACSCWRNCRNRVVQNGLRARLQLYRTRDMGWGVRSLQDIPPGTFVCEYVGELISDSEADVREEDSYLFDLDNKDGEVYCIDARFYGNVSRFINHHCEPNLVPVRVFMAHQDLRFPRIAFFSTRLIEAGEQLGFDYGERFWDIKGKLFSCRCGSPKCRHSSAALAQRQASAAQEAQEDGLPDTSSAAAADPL

Chain of Leukocyte tyrosine kinase receptor (P29376 whole entry): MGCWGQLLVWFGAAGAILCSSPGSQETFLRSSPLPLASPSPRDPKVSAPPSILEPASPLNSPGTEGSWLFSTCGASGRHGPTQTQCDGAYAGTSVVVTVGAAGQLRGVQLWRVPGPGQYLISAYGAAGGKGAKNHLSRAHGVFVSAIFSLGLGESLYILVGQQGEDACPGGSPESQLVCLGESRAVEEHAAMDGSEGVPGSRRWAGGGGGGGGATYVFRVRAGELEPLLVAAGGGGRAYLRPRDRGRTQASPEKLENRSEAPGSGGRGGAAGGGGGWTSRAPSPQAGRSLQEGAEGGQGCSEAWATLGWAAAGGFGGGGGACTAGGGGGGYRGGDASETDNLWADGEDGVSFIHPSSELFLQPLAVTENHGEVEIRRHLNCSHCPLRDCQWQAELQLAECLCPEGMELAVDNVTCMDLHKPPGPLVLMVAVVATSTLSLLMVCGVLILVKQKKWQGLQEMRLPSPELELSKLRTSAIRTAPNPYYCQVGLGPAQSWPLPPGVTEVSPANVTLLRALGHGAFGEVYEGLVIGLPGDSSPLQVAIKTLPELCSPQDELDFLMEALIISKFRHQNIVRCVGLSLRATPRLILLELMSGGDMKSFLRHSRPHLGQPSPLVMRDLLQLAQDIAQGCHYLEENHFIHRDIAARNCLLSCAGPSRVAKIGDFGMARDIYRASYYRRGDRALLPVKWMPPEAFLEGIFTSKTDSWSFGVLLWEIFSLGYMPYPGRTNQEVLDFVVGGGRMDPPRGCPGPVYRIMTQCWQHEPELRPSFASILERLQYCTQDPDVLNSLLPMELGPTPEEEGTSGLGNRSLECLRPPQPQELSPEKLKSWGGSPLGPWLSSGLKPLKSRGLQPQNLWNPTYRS

C=CC(=O)Nc1cccc(C(=O)Nc2ccc(Nc3cc(-c4[nH]c(SC)nc4C)ccn3)cc2)c1
% of control ([1]; at 1 µM): 108% | % of control ([1]; at 5 µM): 99%

Cn1cc(-n2cnc3c(NCc4nc5cc(Cl)c(Cl)cc5[nH]4)nc(N4CCOCC4)nc32)cn1
% of inhibition [2]: -38.1%

CC[C@@H]1[C@H](F)C(=O)N[C@@H]1COc1nccc2cc(C(N)=O)c(OC)cc12 [ZIMLOVISERTIB]
% of inhibition [3]: 106%

CNC(=O)Nc1ccc(-c2nc(N3CC4CCC(C3)O4)c3cnn(C4CCC5(CC4)OCCO5)c3n2)cc1
% of inhibition [4]: 11%

O[C@H]1CC[C@H](Nc2ncc3nc(Nc4c(F)cc(F)cc4F)n([C@H]4CCOC4)c3n2)CC1
% of control [5]: 100%

CN(C)C/C=C/C(=O)Nc1ccc(C(=O)N2CCCC(Nc3ncc(Cl)c(-c4c[nH]c5ccccc45)n3)C2)cc1 (stereo not drawn)
% of control [6]: 68%

CNCCN1CCC(c2cc(CN(C)C(=O)c3cccc(Oc4ccccc4)c3)ccn2)CC1
% activity [7]: > 90%
